The target of test [1] is TEL-MTase fusion (nsp14 N7-MTase-TELSAM) (Severe acute respiratory syndrome coronavirus 2, UniProt P0DTD1). The experiment in a line: ITC binding to TEL-MTase fusion. Also noted: species or system SARS-CoV-2.
The target in test [2] is SARS-CoV-2 nsp14/nsp10 complex (Severe acute respiratory syndrome coronavirus 2, UniProt P0DTD1). The experiment in a line: ITC binding to full-length nsp14/nsp10 complex.
The target of test [3] is SARS-CoV-2 MTase domain (residues 289–527) (Severe acute respiratory syndrome coronavirus 2, UniProt P0DTD1). The experiment in a line: ITC binding to isolated MTase domain.

We go through 2 compounds from publication PMC10388636 (Nature structural & molecular biology, 2022).

The Kd is the equilibrium constant for the complex coming apart. A low value points to tighter binding.

In the case of `Nc1ncnc2c1ncn2[C@@H]1O[C@H](CSCC[C@H](N)C(=O)O)[C@@H](O)[C@H]1O` [SAH, S-adenosylhomocysteine], the figures for the Kd in test [1] and in test [2] were 5 µM and 0.3 µM, respectively.

Take `C[S+](CC[C@H](N)C(=O)[O-])C[C@H]1O[C@@H](n2cnc3c(N)ncnc32)[C@H](O)[C@@H]1O` (stereo partly shown) [SAM, S-adenosylmethionine]: the Kd in test [3] was 22 to 25 µM; in test [2], 5.7 µM.
